# According to US20250243171A1, “QUINAZOLINE COMPOUNDS FOR TREATMENT OF DISEASE” (Arthrosi Therapeutics, Inc., priority 2021, published 2025):
# Legend:
# Test in all cases: EC50 assay: Ba/F3 stable cell proliferation (CCK-8, 72 h)
# Format in all cases: cell-based
# Ba/F3 stable cells [1] = target: T1, Ba/F3 stable cells (Homo sapiens, UniProt P00533, T790M/L858R, cells depend on it); details: Ba/F3-EGFR L858R-T790M cells
# T1 construct: EC50 Ba/F3-EGFR L858R-T790M; other: Ba/F3-EGFR L858R-T790M cells, 72 h, CCK-8
# Outline: (§1)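 Ba/F3 stable cells were seeded at 4,000 cells/90 μL/well in 96-well plates and held 2 h at 37° C. in 5% CO2, then given 10 μL of serially titrated compound (0.1% DMSO final). After 72 h at 37° C., CCK-8 reagent was added for 4 hours and absorbance read at 450 nm to derive EC50.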
# Ba/F3 stable cells [2] = target: T2, Ba/F3 stable cells (Homo sapiens, UniProt P00533, INS763FQEA, cells depend on it); details: Ba/F3-EGFR A763-Y764insFQEA cells
# T2 construct: EC50 Ba/F3-EGFR A763-Y764insFQEA; other: Ba/F3-EGFR A763-Y764insFQEA cells, 72 h, CCK-8
# Outline: as §1
# Ba/F3 stable cells [3] = target: T3, Ba/F3 stable cells (Homo sapiens, UniProt P04626, DUP772-775, cells depend on it); details: Ba/F3-HER2 A775-G776insYVMA cells
# T3 construct: EC50 Ba/F3-HER2 A775-G776insYVMA; other: Ba/F3-HER2 A775-G776insYVMA cells, 72 h, CCK-8
# Outline: as §1
# Ba/F3 stable cells [4] = target: T4, Ba/F3 stable cells (Homo sapiens, UniProt P00533, DUP771-773, cells depend on it); details: Ba/F3-EGFR H773-V774insNPH cells
# T4 construct: EC50 Ba/F3-EGFR H773-V774insNPH; other: Ba/F3-EGFR H773-V774insNPH cells, 72 h, CCK-8
# Outline: as §1
# Ba/F3 stable cells [5] = target: T5, Ba/F3 stable cells (Homo sapiens, UniProt P00533, DUP768-770, cells depend on it); details: Ba/F3-EGFR D770-N771insSVD cells
# T5 construct: EC50 Ba/F3-EGFR D770-N771insSVD; other: Ba/F3-EGFR D770-N771insSVD cells, 72 h, CCK-8
# Outline: as §1
# Ba/F3 stable cells [6] = target: T6, Ba/F3 stable cells (Homo sapiens, UniProt P00533, DUP767-769, cells depend on it); details: Ba/F3-EGFR V769-D770insASV cells
# T6 construct: EC50 Ba/F3-EGFR V769-D770insASV; other: Ba/F3-EGFR V769-D770insASV cells, 72 h, CCK-8
# Outline: as §1
# T4 sequence (P00533 with tags, fused parts or gaps DUP771-773): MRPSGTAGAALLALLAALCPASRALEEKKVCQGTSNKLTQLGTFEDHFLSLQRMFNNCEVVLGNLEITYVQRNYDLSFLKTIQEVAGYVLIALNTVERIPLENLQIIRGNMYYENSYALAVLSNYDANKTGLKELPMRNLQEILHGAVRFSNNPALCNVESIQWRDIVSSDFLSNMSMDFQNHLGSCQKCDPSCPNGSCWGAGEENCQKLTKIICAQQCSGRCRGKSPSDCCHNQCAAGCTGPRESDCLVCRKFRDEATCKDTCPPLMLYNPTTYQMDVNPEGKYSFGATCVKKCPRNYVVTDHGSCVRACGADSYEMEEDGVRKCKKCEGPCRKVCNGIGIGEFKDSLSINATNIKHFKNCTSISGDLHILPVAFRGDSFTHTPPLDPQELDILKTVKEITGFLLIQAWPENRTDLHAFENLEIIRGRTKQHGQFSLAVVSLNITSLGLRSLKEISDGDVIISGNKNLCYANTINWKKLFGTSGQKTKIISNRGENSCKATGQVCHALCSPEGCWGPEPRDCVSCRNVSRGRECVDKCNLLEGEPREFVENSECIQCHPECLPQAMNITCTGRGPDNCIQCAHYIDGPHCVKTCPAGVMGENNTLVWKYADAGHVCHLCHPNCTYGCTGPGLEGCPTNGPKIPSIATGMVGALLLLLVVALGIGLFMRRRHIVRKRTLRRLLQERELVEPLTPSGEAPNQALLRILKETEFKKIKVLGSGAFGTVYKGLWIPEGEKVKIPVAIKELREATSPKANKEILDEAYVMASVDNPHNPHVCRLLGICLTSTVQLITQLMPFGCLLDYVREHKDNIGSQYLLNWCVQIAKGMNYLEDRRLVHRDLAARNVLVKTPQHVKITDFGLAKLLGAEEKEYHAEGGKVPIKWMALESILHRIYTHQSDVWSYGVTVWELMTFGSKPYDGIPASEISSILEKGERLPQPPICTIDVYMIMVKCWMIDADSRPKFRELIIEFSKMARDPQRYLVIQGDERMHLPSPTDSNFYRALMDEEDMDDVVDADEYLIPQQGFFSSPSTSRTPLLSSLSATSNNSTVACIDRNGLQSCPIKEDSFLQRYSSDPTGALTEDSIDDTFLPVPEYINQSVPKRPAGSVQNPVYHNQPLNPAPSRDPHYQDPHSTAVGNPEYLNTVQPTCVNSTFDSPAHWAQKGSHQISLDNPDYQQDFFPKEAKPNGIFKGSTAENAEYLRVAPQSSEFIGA
# T2 sequence (P00533 with tags, fused parts or gaps INS763FQEA): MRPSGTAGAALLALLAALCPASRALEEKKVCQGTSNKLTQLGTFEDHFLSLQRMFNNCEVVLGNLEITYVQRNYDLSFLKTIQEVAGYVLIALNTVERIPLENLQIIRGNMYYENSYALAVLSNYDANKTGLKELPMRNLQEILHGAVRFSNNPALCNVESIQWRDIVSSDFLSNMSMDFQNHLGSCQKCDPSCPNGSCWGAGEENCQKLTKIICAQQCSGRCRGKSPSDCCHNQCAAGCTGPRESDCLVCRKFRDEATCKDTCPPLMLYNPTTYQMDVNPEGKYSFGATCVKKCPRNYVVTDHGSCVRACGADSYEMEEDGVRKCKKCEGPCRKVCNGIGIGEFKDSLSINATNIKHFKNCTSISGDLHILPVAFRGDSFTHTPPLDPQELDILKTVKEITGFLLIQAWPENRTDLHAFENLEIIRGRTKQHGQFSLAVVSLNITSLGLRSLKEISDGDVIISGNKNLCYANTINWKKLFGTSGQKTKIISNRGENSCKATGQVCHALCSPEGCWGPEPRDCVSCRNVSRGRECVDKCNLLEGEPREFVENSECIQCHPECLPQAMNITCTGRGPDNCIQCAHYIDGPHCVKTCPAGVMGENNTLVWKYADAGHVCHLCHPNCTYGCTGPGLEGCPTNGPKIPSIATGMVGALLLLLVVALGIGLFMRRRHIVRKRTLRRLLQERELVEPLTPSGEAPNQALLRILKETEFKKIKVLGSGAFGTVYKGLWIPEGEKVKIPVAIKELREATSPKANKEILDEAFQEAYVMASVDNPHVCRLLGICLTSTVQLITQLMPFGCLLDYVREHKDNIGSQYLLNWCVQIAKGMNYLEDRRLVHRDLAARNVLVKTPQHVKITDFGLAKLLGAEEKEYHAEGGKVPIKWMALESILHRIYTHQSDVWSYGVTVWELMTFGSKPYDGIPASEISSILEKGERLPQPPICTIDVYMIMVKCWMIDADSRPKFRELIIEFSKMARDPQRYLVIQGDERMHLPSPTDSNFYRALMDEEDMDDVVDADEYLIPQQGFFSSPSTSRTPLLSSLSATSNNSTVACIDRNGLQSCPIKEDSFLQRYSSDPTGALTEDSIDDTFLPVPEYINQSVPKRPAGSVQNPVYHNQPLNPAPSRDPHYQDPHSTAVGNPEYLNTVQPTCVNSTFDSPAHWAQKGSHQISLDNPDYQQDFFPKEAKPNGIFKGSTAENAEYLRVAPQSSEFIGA
# T1 sequence (P00533 whole entry T790M/L858R): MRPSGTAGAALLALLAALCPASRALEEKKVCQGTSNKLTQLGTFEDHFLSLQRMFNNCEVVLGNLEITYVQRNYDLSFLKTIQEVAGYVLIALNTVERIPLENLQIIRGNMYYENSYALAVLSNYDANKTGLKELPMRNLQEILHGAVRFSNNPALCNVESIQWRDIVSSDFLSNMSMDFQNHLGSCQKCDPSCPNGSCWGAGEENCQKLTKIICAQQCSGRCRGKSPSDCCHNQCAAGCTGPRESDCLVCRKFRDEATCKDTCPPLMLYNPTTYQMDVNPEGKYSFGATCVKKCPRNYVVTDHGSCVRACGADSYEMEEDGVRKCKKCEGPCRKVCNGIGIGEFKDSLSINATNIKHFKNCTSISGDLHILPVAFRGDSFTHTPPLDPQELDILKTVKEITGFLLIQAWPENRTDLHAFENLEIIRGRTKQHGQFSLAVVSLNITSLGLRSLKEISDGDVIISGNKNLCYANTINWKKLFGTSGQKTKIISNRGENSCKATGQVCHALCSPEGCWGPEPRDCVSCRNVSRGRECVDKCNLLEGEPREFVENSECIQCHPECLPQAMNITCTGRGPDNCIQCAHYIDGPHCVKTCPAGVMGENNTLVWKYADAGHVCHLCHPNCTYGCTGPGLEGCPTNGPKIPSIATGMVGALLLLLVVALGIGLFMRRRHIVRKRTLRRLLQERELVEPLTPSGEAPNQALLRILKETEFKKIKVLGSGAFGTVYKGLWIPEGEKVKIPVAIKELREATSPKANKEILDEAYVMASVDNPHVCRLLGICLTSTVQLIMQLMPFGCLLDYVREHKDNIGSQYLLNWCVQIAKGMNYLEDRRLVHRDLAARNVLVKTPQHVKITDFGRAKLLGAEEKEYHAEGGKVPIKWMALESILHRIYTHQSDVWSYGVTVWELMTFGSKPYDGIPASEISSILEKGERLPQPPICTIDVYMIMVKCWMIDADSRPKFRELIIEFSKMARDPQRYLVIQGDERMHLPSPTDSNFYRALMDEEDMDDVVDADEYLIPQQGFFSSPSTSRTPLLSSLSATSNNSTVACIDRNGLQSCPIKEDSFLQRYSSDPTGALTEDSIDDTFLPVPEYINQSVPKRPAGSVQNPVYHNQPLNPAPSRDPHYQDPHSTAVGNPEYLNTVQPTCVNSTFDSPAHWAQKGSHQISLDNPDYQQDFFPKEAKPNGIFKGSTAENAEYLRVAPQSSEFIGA
# T6 sequence (P00533 with tags, fused parts or gaps DUP767-769): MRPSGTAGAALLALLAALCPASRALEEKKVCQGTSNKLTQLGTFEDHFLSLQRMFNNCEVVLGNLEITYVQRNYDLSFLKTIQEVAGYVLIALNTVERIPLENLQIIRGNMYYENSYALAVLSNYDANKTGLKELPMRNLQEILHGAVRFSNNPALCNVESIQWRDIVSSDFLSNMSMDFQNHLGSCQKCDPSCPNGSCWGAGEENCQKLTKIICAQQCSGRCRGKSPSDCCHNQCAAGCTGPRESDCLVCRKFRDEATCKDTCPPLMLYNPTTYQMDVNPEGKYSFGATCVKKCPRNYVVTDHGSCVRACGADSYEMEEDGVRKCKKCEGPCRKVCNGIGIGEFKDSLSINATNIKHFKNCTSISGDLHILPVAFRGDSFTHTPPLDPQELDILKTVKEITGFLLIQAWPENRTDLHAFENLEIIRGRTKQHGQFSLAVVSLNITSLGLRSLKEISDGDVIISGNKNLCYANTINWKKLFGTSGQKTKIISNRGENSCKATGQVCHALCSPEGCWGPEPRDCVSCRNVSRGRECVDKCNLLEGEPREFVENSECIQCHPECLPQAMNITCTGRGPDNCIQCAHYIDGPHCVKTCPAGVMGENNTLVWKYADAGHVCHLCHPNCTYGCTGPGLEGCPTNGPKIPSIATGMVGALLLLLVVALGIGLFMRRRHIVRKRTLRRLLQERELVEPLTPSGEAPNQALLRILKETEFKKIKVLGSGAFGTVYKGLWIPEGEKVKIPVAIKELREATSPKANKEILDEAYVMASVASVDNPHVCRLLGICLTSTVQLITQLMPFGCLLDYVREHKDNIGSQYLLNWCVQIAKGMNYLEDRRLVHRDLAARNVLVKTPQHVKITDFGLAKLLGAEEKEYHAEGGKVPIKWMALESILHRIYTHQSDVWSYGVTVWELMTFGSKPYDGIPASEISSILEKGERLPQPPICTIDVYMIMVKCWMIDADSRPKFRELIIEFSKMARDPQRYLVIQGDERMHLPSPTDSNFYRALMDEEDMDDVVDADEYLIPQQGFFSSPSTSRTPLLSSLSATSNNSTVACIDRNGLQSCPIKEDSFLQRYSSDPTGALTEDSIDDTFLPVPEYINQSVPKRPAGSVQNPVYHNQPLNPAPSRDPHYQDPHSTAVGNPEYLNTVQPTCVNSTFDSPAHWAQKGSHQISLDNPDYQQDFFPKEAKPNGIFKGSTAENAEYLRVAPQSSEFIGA
Structure (SMILES),EC50 (Ba/F3 stable cells [1]),EC50 (Ba/F3 stable cells [2]),EC50 (Ba/F3 stable cells [3]),EC50 (Ba/F3 stable cells [4]),EC50 (Ba/F3 stable cells [5]),EC50 (Ba/F3 stable cells [6])
"C#CC(=O)N1C2CCC1CC(Oc1cc3c(Nc4cccc5ccccc45)ncnc3cc1OC)C2 (stereo not drawn) [Compound 60, 1-(3-((7-methoxy-4-(naphthalen-1-ylamino)quinazolin-6-yl)oxy)-8-azabicyclo[3.2.1]octan-8-yl)prop-2-yn-1-one]",≤ 200 nM,≤ 200 nM,200 to 1000 nM,≤ 200 nM,200 to 1000 nM,≤ 200 nM
"C=CC(=O)N[C@H]1C[C@@H](Oc2cc3c(Nc4ccc(Cl)c(Cl)c4F)ncnc3cc2OCCO)C1 [Compound 100, N-((1s,3s)-3-((4-((3,4-dichloro-2-fluorophenyl)amino)-7-(2-hydroxyethoxy)quinazolin-6-yl)oxy)cyclobutyl)acrylamide]",200 to 1000 nM,≤ 200 nM,200 to 1000 nM,200 to 1000 nM,200 to 1000 nM,≤ 200 nM
"C=CC(=O)N1CCC(Oc2cc3c(NCc4cc(Cl)ccc4F)ncnc3cc2OC)CC1 [Compound 118, 1-(4-((4-((5-chloro-2-fluorobenzyl)amino)-7-methoxyquinazolin-6-yl)oxy)piperidin-1-yl)prop-2-en-1-one]",> 1000 nM,≤ 200 nM,200 to 1000 nM,> 1000 nM,> 1000 nM,> 1000 nM
"C=CC(=O)N1CC(c2cc3c(Nc4ccc(Cl)c(Cl)c4F)ncnc3cc2OC2CCOCC2)C1 [Compound 27, 1-(3-(4-((3,4-dichloro-2-fluorophenyl)amino)-7-((tetrahydro-2H-pyran-4-yl)oxy)quinazolin-6-yl)azetidin-1-yl)prop-2-en-1-one]",200 to 1000 nM,≤ 200 nM,> 1000 nM,≤ 200 nM,200 to 1000 nM,≤ 200 nM
"C=C(F)C(=O)N[C@H]1C[C@@H](Oc2cc3c(Nc4ccc(Cl)c(Cl)c4F)ncnc3cc2OC)C1 [Compound 40, N-((1s,3s)-3-((4-((3,4-dichloro-2-fluorophenyl)amino)-7-methoxyquinazolin-6-yl)oxy)cyclobutyl)-2-fluoroacrylamide]",200 to 1000 nM,≤ 200 nM,200 to 1000 nM,200 to 1000 nM,200 to 1000 nM,≤ 200 nM
"C#CC(=O)N1CCC(Oc2cc3c(Nc4ccc5ccccc5c4)ncnc3cc2OC)CC1 [Compound 53, 1-(4-((7-methoxy-4-(naphthalen-2-ylamino)quinazolin-6-yl)oxy)piperidin-1-yl)prop-2-yn-1-one]",≤ 200 nM,≤ 200 nM,≤ 200 nM,≤ 200 nM,≤ 200 nM,≤ 200 nM
"C=CC(=O)NC1CC(Oc2cc3c(Nc4ccc(F)c(Cl)c4Cl)ncnc3cc2OC)C1 (stereo not drawn) [Compound 76, N-(3-((4-((2,3-dichloro-4-fluorophenyl)amino)-7-methoxyquinazolin-6-yl)oxy)cyclobutyl)acrylamide]",> 1000 nM,≤ 200 nM,200 to 1000 nM,200 to 1000 nM,200 to 1000 nM,≤ 200 nM
"C=CC(=O)N1CC(c2cc3c(Nc4ccc(OCc5ccccc5)c(Cl)c4F)ncnc3cc2OC)C1 [Compound 2, 1-(3-(4-((4-(benzyloxy)-3-chloro-2-fluorophenyl)amino)-7-methoxyquinazolin-6-yl)azetidin-1-yl)prop-2-en-1-one]",> 1000 nM,> 1000 nM,> 1000 nM,> 1000 nM,> 1000 nM,> 1000 nM
"C=CC(=O)N1CC(c2cc3c(NCc4cccc(Cl)c4)ncnc3cc2OC)C1 [Compound 15, 1-(3-(4-((3-chlorobenzyl)amino)-7-methoxyquinazolin-6-yl)azetidin-1-yl)prop-2-en-1-one]",200 to 1000 nM,≤ 200 nM,> 1000 nM,200 to 1000 nM,200 to 1000 nM,≤ 200 nM
"C=CC(=O)NC1CC(Oc2cc3c(NCc4ccc(F)cc4)ncnc3cc2OC)C1 (stereo not drawn) [Compound 84, N-(3-((4-((4-fluorobenzyl)amino)-7-methoxyquinazolin-6-yl)oxy)cyclobutyl)acrylamide]",> 1000 nM,≤ 200 nM,> 1000 nM,> 1000 nM,> 1000 nM,200 to 1000 nM
"C=CC(=O)N1CCC(Oc2cc3c(Nc4ccc5ccccc5c4Cl)ncnc3cc2OC)CC1 [Compound 160, 1-(4-((4-((1-chloronaphthalen-2-yl)amino)-7-methoxyquinazolin-6-yl)oxy)piperidin-1-yl)prop-2-en-1-one]",200 to 1000 nM,≤ 200 nM,> 1000 nM,200 to 1000 nM,> 1000 nM,≤ 200 nM
"C=CC(=O)N1CCC(Oc2cc3c(NCc4ccc(Cl)cc4Cl)ncnc3cc2OC)CC1 [Compound 109, 1-(4-((4-((2,4-dichlorobenzyl)amino)-7-methoxyquinazolin-6-yl)oxy)piperidin-1-yl)prop-2-en-1-one]",> 1000 nM,200 to 1000 nM,> 1000 nM,> 1000 nM,> 1000 nM,> 1000 nM
"C=CC(=O)N1CCC(Oc2cc3c(N4CCN(c5cccc(Cl)c5)CC4)ncnc3cc2OC)CC1 [Compound 147, 1-(4-((4-(4-(3-chlorophenyl)piperazin-1-yl)-7-methoxyquinazolin-6-yl)oxy)piperidin-1-yl)prop-2-en-1-one]",> 1000 nM,> 1000 nM,> 1000 nM,> 1000 nM,> 1000 nM,> 1000 nM
"C=CC(=O)N[C@H]1C[C@@H](Oc2cc3c(Nc4ccc(Cl)c(Cl)c4F)ncnc3cc2OCCN(C)C)C1 [Compound 101, N-((1s,3s)-3-((4-((3,4-dichloro-2-fluorophenyl)amino)-7-(2-(dimethylamino)ethoxy)quinazolin-6-yl)oxy)cyclobutyl)acrylamide]",> 1000 nM,≤ 200 nM,> 1000 nM,> 1000 nM,> 1000 nM,200 to 1000 nM
"C=CS(=O)(=O)N1CCC(Oc2c(OC)cc3ncnc4c3c2NC(=O)N4c2ccc(Cl)c(Cl)c2)CC1 [Compound 226, 3-(3,4-dichlorophenyl)-8-methoxy-9-((1-(vinylsulfonyl)piperidin-4-yl)oxy)-1H-pyrimido[4,5,6-de]quinazolin-2(3H)-one]",≤ 200 nM,≤ 200 nM,≤ 200 nM,≤ 200 nM,200 to 1000 nM,200 to 1000 nM
"C=CC(=O)NC1COc2c(-c3cnc4ccccc4c3)c3c(N)ncnc3n2C1 (stereo not drawn) [Compound 228, N-(4-amino-5-(quinolin-3-yl)-8,9-dihydro-7H-pyrimido[5′,4′:4,5]pyrrolo[2,1-b][1,3]oxazin-8-yl)acrylamide]",≤ 200 nM,≤ 200 nM,> 1000 nM,> 1000 nM,> 1000 nM,200 to 1000 nM
"C=CC(=O)N1CC(c2cc3c(Nc4ccc(Cl)c(Cl)c4F)ncnc3cc2OCCCN2CCN(C)CC2)C1 [Compound 31, 1-(3-(4-((3,4-dichloro-2-fluorophenyl)amino)-7-(3-(4-methylpiperazin-1-yl)propoxy)quinazolin-6-yl)azetidin-1-yl)prop-2-en-1-one]",≤ 200 nM,≤ 200 nM,200 to 1000 nM,≤ 200 nM,≤ 200 nM,≤ 200 nM
"C=CC(=O)NC1CC(Oc2cc3c(Nc4ccc(Cl)c(F)c4Cl)ncnc3cc2OC)C1 (stereo not drawn) [Compound 75, N-(3-((4-((2,4-dichloro-3-fluorophenyl)amino)-7-methoxyquinazolin-6-yl)oxy)cyclobutyl)acrylamide]",200 to 1000 nM,≤ 200 nM,200 to 1000 nM,200 to 1000 nM,> 1000 nM,200 to 1000 nM
"C#CC(=O)N1C2CCC1CC(Oc1cc3c(Nc4ccc5ccccc5c4)ncnc3cc1OC)C2 (stereo not drawn) [Compound 59, 1-(3-((7-methoxy-4-(naphthalen-2-ylamino)quinazolin-6-yl)oxy)-8-azabicyclo[3.2.1]octan-8-yl)prop-2-yn-1-one]",≤ 200 nM,≤ 200 nM,200 to 1000 nM,≤ 200 nM,200 to 1000 nM,≤ 200 nM
"C#CC(=O)N1C2CCCC1CC(Oc1cc3c(Nc4ccc5ccccc5c4)ncnc3cc1OC)C2 (stereo not drawn) [Compound 58, 1-(3-((7-methoxy-4-(naphthalen-2-ylamino)quinazolin-6-yl)oxy)-9-azabicyclo[3.3.1]nonan-9-yl)prop-2-yn-1-one]",≤ 200 nM,≤ 200 nM,≤ 200 nM,≤ 200 nM,200 to 1000 nM,≤ 200 nM
